# Counter-ions that a name gives are not always drawn.
# Target: JAK2 (Homo sapiens (Human), UniProt O60674)
# Assay: JAK2 Tyrosine Kinase Assay
# Type: biochemical
# Conditions: ATP 30 μM; JAK2 1 nM; 60 min at room temperature
# Method: JAK2 Tyrosine Kinase Assay
# The assays were performed in V-bottom 384-well plates. […] The reaction was initiated by the combination of JAK2 with substrates and test compounds. The reaction was incubated at room temperature for 60 min. and terminated by adding 45 μl of 35 mM EDTA to each sample. The reaction mixture was analyzed on the Caliper LABCHIP® 3000 by electrophoretic separation of the fluorescent substrate and phosphorylated product. […] Compounds were dissolved at 10 mM in dimethylsulfoxide (DMSO) and evaluated at eleven concentrations, each in duplicate. IC50 values were derived by non-linear regression analysis
# Chain of JAK2 (O60674 whole entry): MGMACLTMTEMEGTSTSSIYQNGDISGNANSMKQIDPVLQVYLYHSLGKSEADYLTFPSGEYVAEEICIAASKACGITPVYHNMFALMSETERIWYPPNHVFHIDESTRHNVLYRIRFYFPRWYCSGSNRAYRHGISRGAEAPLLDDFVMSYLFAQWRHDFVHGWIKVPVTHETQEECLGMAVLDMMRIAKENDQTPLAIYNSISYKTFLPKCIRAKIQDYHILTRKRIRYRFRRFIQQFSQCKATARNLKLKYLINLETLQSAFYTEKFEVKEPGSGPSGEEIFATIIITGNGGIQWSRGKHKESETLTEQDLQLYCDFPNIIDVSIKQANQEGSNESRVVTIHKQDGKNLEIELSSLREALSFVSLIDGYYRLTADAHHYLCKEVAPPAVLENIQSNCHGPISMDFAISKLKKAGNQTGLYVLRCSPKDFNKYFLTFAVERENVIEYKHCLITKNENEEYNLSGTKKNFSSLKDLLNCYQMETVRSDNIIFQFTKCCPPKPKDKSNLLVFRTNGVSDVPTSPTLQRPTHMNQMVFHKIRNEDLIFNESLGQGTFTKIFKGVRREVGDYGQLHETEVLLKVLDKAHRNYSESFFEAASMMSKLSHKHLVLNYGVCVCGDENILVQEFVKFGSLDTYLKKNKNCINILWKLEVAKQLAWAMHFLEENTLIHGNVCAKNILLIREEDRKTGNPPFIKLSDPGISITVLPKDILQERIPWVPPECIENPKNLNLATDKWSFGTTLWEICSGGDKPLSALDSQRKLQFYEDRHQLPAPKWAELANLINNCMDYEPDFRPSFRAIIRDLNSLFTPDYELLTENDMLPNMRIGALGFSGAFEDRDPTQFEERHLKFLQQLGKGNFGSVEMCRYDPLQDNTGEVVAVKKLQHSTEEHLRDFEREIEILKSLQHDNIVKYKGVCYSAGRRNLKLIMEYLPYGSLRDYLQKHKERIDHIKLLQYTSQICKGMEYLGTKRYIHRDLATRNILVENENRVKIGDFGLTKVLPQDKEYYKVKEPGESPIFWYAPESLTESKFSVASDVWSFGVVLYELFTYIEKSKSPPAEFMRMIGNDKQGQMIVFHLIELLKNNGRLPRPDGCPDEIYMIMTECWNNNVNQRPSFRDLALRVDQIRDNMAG
row,SMILES,IC50 [nM]
1,"COc1ccc(-c2cc(C(N)=O)c3[nH]c4cc(C(=O)O)ccc4c3c2)cc1F [Example 395, 8-Carbamoyl-6-(3-fluoro-4-methoxyphenyl)-9H-carbazole-2-carboxylate]",111
2,"NC(=O)c1cc(-c2cnc(N3CCOCC3)nc2)cc2c1[nH]c1cc(C(=O)N3CCOCC3)ccc12 [Example 579, 7-(4-morpholinylcarbonyl)-3-(2-(4-morpholinyl)-5-pyrimidinyl)-9H-carbazole-1-carboxamide]",108
3,"COc1cccc(-c2cc(C(N)=O)c3[nH]c4cccnc4c3c2)c1 [Example 204, 8-(3-Methoxyphenyl)-5H-pyrido[3,2-b]indole-6-carboxamide, HCl]",29
4,NC(=O)c1cc(-c2ccc(Cl)c(Cl)c2)nc2c1[nH]c1cc(OCCN3CCOCC3)ccc12 [Example 245],7
5,"NC(=O)c1cc(N2CCC(N)CC2)nc2c1[nH]c1cc(C(=O)N3CCOCC3)ccc12 [Example 405, 2-(4-aminopiperidin-1-yl)-7-(morpholine-4-carbonyl)-5H-pyrido[3,2-b]indole-4-carboxamide]",636
6,"COc1cccc(-c2cc(C(N)=O)c3[nH]c4cc(NC(=O)OCCN)ccc4c3c2)c1 [Example 132, 2-aminoethyl (8-carbamoyl-6-(3-methoxyphenyl)-9H-carbazol-2-yl)carbamate]",7
7,"CN(C)C(=O)c1ccc(-c2cc(C(N)=O)c3[nH]c4cc(C(=O)N5CCOCC5)ccc4c3c2)cc1 [Example 558, 3-(4-(dimethylcarbamoyl)phenyl)-7-(4-morpholinylcarbonyl)-9H-carbazole-1-carboxamide]",286
8,"COc1ccc(-c2nc(C(N)=O)c3[nH]c4cc(OC)ccc4c3n2)cc1 [Example 210, 7-Methoxy-2-(4-methoxyphenyl)-5H-pyrimido[5,4-b]indole-4-carboxamide]",170
9,"NC(=O)c1cc(-c2ccc(OC3CCNCC3)c(Cl)c2)nc2c1[nH]c1cc(N3CCOCC3)ccc12 [Example 360, 2-(3-chloro-4-(piperidin-4-yloxy)phenyl)-7-morpholino-5H-pyrido[3,2-b]indole-4-carboxamide]",7
10,"NC(=O)c1cc(-c2cnoc2)nc2c1[nH]c1cc(C(=O)N3CCOCC3)ccc12 [Example 462, 2-(isoxazol-4-yl)-7-(morpholine-4-carbonyl)-5H-pyrido[3,2-b]indole-4-carboxamide]",112
11,"COc1ccc(-c2cc(C(N)=O)c3[nH]c4nc(OC)ccc4c3n2)cc1 [Example 129, 7-Methoxy-2-(4-methoxyphenyl)-5H-pyrido[2′,3′:4,5]pyrrolo[2,3-b]pyridine-4-carboxamide]",110
12,"COC(=O)c1ccc2c(c1)[nH]c1c(C(N)=O)cc(-c3cccc(OC)c3)cc12 [Example 142, Methyl 8-carbamoyl-6-(3-methoxyphenyl)-9H-carbazole-2-carboxylate]",310
13,"COc1cccc(-c2cc(C(N)=O)c3[nH]c4cc(C(=O)N5CCN(Cc6cccnc6)CC5)ccc4c3c2)c1 [Example 88, 3-(3-methoxyphenyl)-7-((4-(3-pyridinylmethyl)-1-piperazinyl)carbonyl)-9H-carbazole-1-carboxamide]",6
14,"CNC(=O)c1cc(-c2ccc(OC)cc2)nc2c1[nH]c1cc(OC)ccc12 [Example 128, 7-Methoxy-2-(4-methoxyphenyl)-N-methyl-5H-pyrido[3,2-b]indole-4-carboxamide]",1230
15,"NC(=O)c1cc(-c2ccc(F)c(F)c2)nc2c1[nH]c1cc(C(=O)N3CCOCC3)ccc12 [Example 216, 2-(3,4-difluorophenyl)-7-(4-morpholinylcarbonyl)-5H-pyrido[3,2-b]indole-4-carboxamide]",7
16,"COc1cc(-c2cc(C(N)=O)c3[nH]c4ccc(C(=O)N5CCOC(CO)C5)cc4c3c2)cc(OC)c1OC (stereo not shown) [Example 183, 6-(2-(hydroxymethyl)morpholine-4-carbonyl)-3-(3,4,5-trimethoxyphenyl)-9H-carbazole-1-carboxamide]",160

# Other lines, results leading:
row,IC50 [nM],SMILES
1,1,"CN1CCN(c2ccc3c(c2)[nH]c2c(C(N)=O)cc(-c4cccc(Cl)c4)nc23)CC1 [Example 309, 2-(3-chlorophenyl)-7-(4-methylpiperazin-1-yl)-5H-pyrido[3,2-b]indole-4-carboxamide]"
2,6,"COc1cccc(-c2cc(C(N)=O)c3[nH]c4cc(C(=O)N5C[C@@H]6C[C@H]5CO6)ccc4c3c2)c1 [Example 124, 3-(3-methoxyphenyl)-7-((1S,4S)-2-oxa-5-azabicyclo[2.2.1]hept-5-ylcarbonyl)-9H-carbazole-1-carboxamide]"
3,1,"NC(=O)c1cc(-c2ccc(C3CC3)nc2)nc2c1[nH]c1cc(N3CCOCC3)ccc12 [Example 499, 2-(6-cyclopropylpyridin-3-yl)-7-morpholino-5H-pyrido[3,2-b]indole-4-carboxamide]"
4,1,"NC(=O)c1cc(-c2cccc(Cl)c2)nc2c1[nH]c1ccc(CN3CCOCC3)cc12 [Example 257, 2-(3-Chlorophenyl)-8-(morpholinomethyl)-5H-pyrido[3,2-b]indole-4-carboxamide]"
5,< 1,"COc1ccc(-c2cc(C(N)=O)c3[nH]c4cc(C(=O)N5CC[C@H](N(C)C)C5)ccc4c3n2)cc1F [Example 211, (S)-7-(3-(Dimethylamino)pyrrolidine-1-carbonyl)-2-(3-fluoro-4-methoxyphenyl)-5H-pyrido[3,2-b]indole-4-carboxamide]"
6,6,"NC(=O)c1cc(-c2ccc(OC(F)(F)F)cc2)cc2c1[nH]c1cc(C(=O)N3CCOCC3)ccc12 [Example 151, 7-(4-morpholinylcarbonyl)-3-(4-(trifluoromethoxy)phenyl)-9H-carbazole-1-carboxamide]"
7,1,"NC(=O)c1cc(-c2ccc(CN3CCOCC3)s2)nc2c1[nH]c1cc(N3CCOCC3)ccc12 [Example 345, 7-morpholino-2-(5-(morpholinomethyl)thiophen-2-yl)-5H-pyrido[3,2-b] indole-4-carboxamide]"
8,6,"COCCN1CCN(Cc2ccc(-c3cc(C(N)=O)c4[nH]c5cc(N6CCOCC6)ccc5c4n3)s2)CC1 [Example 373, 2-(5-((4-(2-methoxyethyl)piperazin-1-yl)methyl)thiophen-2-yl)-7-morpholino-5H-pyrido[3,2-b]indole-4-carboxamide]"
9,1,"NC(=O)c1cc(-c2ccc(CN3CCOCC3)s2)nc2c1[nH]c1cc(N3CCOCC3=O)ccc12 [Example 324, 2-(5-(Morpholinomethyl)thiophen-2-yl)-7-(3-oxomorpholino)-5H-pyrido[3,2-b]indole-4-carboxamide]"
10,1,"COc1ccc(-c2cc(C(N)=O)c3[nH]c4ccc(C(=O)N5CCC(O)CC5)cc4c3c2)cc1F [Example 197, 3-(3-fluoro-4-methoxyphenyl)-6-(4-hydroxypiperidine-1-carbonyl)-9H-carbazole-1-carboxamide]"
11,6,"COc1ccc(-c2cc(C(N)=O)c3[nH]c4ccc(C(=O)N5CCOCC5)cc4c3c2)cc1OC [Example 166, 3-(3,4-dimethoxyphenyl)-6-(4-morpholinylcarbonyl)-9H-carbazole-1-carboxamide]"
12,2,"COc1ccc(-c2cc(C(N)=O)c3[nH]c4ccc(C(=O)N5CCC[C@H](O)C5)cc4c3c2)cc1F [Example 190, (S)-3-(3-fluoro-4-methoxyphenyl)-6-(3-hydroxypiperidine-1-carbonyl)-9H-carbazole-1-carboxamide]"
13,1,"CN(C)c1ccc(-c2cc(C(N)=O)c3[nH]c4cc(N5CCOCC5)ccc4c3n2)cn1 [Example 503, 2-(6-(dimethylamino)pyridin-3-yl)-7-morpholino-5H-pyrido[3,2-b]indole-4-carboxamide]"
14,6,"CN(C)CCNC(=O)c1ccc2[nH]c3c(C(N)=O)cc(-c4ccc(Cl)c(Cl)c4)cc3c2c1 [Example 56, 3-(3,4-dichlorophenyl)-N^6-(2-(dimethylamino)ethyl)-9H-carbazole-1,6-dicarboxamide]"
15,1,"NC(=O)c1cc(-c2ccc(CN3CCOCC3)cc2)nc2c1[nH]c1cc(N3CCS(=O)(=O)CC3)ccc12 [Example 323, 7-(1,1-Dioxido-4-thiomorpholinyl)-2-(4-(4-morpholinylmethyl)phenyl)-5H-pyrido[3,2-b]indole-4-carboxamide]"
16,6,"CN1CCN(c2ccc(-c3cc(C(N)=O)c4[nH]c5cc(C(=O)N6CCOCC6)ccc5c4n3)cc2)CC1 [Example 468, 2-(4-(4-methylpiperazin-1-yl)phenyl)-7-(morpholine-4-carbonyl)-5H-pyrido[3,2-b]indole-4-carboxamide]"
17,6,"NC(=O)c1cc(-c2ccc(CO)nc2)nc2c1[nH]c1cc(N3CCOCC3)ccc12 [Example 500, 2-(6-(hydroxymethyl)pyridin-3-yl)-7-morpholino-5H-pyrido[3,2-b]indole-4-carboxamide]"
18,6,"NC(=O)c1cc(-c2cc(CN3CCOCC3)co2)nc2c1[nH]c1cc(N3CCOCC3)ccc12 [Example 374, 7-morpholino-2-(4-(mor-pholinomethyl)furan-2-yl)-5H-pyrido[3,2-b]indole-4-carboxamide]"
19,6,"COCCOc1ccc(-c2cc(C(N)=O)c3[nH]c4cc(N5CCOCC5)ccc4c3n2)cc1Cl [Example 357, 2-(3-chloro-4-(2-methoxyethoxy)phenyl)-7-morpholino-5H-pyrido[3,2-b]indole-4-carboxamide]"
20,< 1,"COCCCN1CCN(C(=O)c2ccc3c(c2)[nH]c2c(C(N)=O)cc(-c4cccc(OC)c4)cc23)CC1 [Example 106, 3-(3-methoxyphenyl)-7-((4-(3-methoxypropyl)-1-piperazinyl)carbonyl)-9H-carbazole-1-carboxamide]"
21,2,"NC(=O)c1cc(-c2ccc(Cl)c(Cl)c2)cc2c1[nH]c1ccc(C(=O)N3CCOC(CO)C3)cc12 (stereo not shown) [Example 180, 3-(3,4-dichlorophenyl)-6-(2-(hydroxymethyl)morpholine-4-carbonyl)-9H-carbazole-1-carboxamide]"

# Source: patent US8815840B2, “Carbazole and carboline kinase inhibitors” (Bristol-Myers Squibb Company, priority 2008, dated 2014)
